Results reported in PubChem BioAssay AID1963830 (Molecular Pharmacology Branch, DTP, NCI, 2024).

System: 922993-354-T-J3-PDC complex spheroid viability
Experiment: Anticancer human tumor 922993-354-T-J3-PDC patient-derived endometrial carcinoma cell line growth inhibition [POLQ]
Details: for IC50: curve of first compound; for viability, T/C: stronger effect = lower value
How it was run: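 Growth inhibition in 3D: complex spheroids (tumor PDC, HUVEC, MSC) treated with POLQ inhibitor combinations; where Cmax unknown, highest tested concentration 10 microM, except SN-38 at 1 microM.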

[1] = second compound 0.0316 µM, first compound 0.0316 µM
[2] = second compound 0.0316 µM, first compound 0.1 µM
[3] = second compound 0.0316 µM, first compound 0.316 µM
[4] = second compound 0.0316 µM, first compound 1 µM
[5] = second compound 0.0316 µM, first compound 3.16 µM
[6] = second compound 0.0316 µM, first compound 10 µM
[7] = second compound 0.1 µM, first compound 0.0316 µM
[8] = second compound 0.1 µM, first compound 0.1 µM
[9] = second compound 0.1 µM, first compound 0.316 µM
[10] = second compound 0.1 µM, first compound 1 µM
[11] = second compound 0.1 µM, first compound 3.16 µM
[12] = second compound 0.1 µM, first compound 10 µM
[13] = second compound 0.316 µM, first compound 0.0316 µM
[14] = second compound 0.316 µM, first compound 0.1 µM
[15] = second compound 0.316 µM, first compound 0.316 µM
[16] = second compound 0.316 µM, first compound 1 µM
[17] = second compound 0.316 µM, first compound 3.16 µM
[18] = second compound 0.316 µM, first compound 10 µM
[19] = second compound 1 µM, first compound 0.0316 µM
[20] = second compound 1 µM, first compound 0.1 µM
[21] = second compound 1 µM, first compound 0.316 µM
[22] = second compound 1 µM, first compound 1 µM
[23] = second compound 1 µM, first compound 3.16 µM
[24] = second compound 1 µM, first compound 10 µM
[25] = second compound 3.16 µM, first compound 0.0316 µM
[26] = second compound 3.16 µM, first compound 0.1 µM
[27] = second compound 3.16 µM, first compound 0.316 µM
[28] = second compound 3.16 µM, first compound 1 µM
[29] = second compound 3.16 µM, first compound 3.16 µM
[30] = second compound 3.16 µM, first compound 10 µM
[31] = second compound 10 µM, first compound 0.0316 µM
[32] = second compound 10 µM, first compound 0.1 µM
[33] = second compound 10 µM, first compound 0.316 µM
[34] = second compound 10 µM, first compound 1 µM
[35] = second compound 10 µM, first compound 3.16 µM
[36] = second compound 10 µM, first compound 10 µM
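Further: spheroids exposed to the agents for one week.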
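Wherever viability, T/C is given: 100% = DMSO vehicle control wells.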

Compound: CC1COCCN1c1cc(-c2ccnn2C)c2ccnc(-c3ccn[nH]3)c2n1 (centres undefined) + Nc1ccc(C#CCN(C(=O)Cc2ncc(C(F)(F)F)cc2C(F)(F)F)c2ccc(F)cc2)nn1
- IC50 (second compound 0.0316 µM): 680 nM
- IC50 (second compound 0.1 µM): 653 nM
- IC50 (second compound 0.316 µM): 717 nM
- IC50 (second compound 1 µM): 729 nM
- IC50 (second compound 3.16 µM): 593 nM
- IC50 (second compound 10 µM): 449 nM
- viability, T/C [1]: 107%
- viability, T/C [2]: 102%
- viability, T/C [3]: 72.5%
- viability, T/C [4]: 38.3%
- viability, T/C [5]: 21%
- viability, T/C [6]: 13.9%
- viability, T/C [7]: 109%
- viability, T/C [8]: 95.5%
- viability, T/C [9]: 70.7%
- viability, T/C [10]: 40%
- viability, T/C [11]: 14.2%
- viability, T/C [12]: 14.5%
- viability, T/C [13]: 104%
- viability, T/C [14]: 93.1%
- viability, T/C [15]: 72%
- viability, T/C [16]: 42.1%
- viability, T/C [17]: 18.9%
- viability, T/C [18]: 13.8%
- viability, T/C [19]: 102%
- viability, T/C [20]: 92.1%
- viability, T/C [21]: 78.2%
- viability, T/C [22]: 39.2%
- viability, T/C [23]: 16.8%
- viability, T/C [24]: 10.1%
- viability, T/C [25]: 101%
- viability, T/C [26]: 89.5%
- viability, T/C [27]: 69.2%
- viability, T/C [28]: 33.8%
- viability, T/C [29]: 19.3%
- viability, T/C [30]: 11.5%
- viability, T/C [31]: 99.1%
- viability, T/C [32]: 80.2%
- viability, T/C [33]: 64.7%
- viability, T/C [34]: 23.1%
- viability, T/C [35]: 17.5%
- viability, T/C [36]: 13.2%

Compound: CCCS(=O)(=O)Nc1ccc(F)c(C(=O)c2c[nH]c3ncc(-c4ccc(Cl)cc4)cc23)c1F + Nc1ccc(C#CCN(C(=O)Cc2ncc(C(F)(F)F)cc2C(F)(F)F)c2ccc(F)cc2)nn1
- IC50 (second compound 0.0316 µM): > 10000 nM
- IC50 (second compound 0.1 µM): > 10000 nM
- IC50 (second compound 0.316 µM): > 10000 nM
- IC50 (second compound 1 µM): > 10000 nM
- IC50 (second compound 3.16 µM): > 10000 nM
- IC50 (second compound 10 µM): > 10000 nM
- viability, T/C [1]: 99.3%
- viability, T/C [2]: 107%
- viability, T/C [3]: 105%
- viability, T/C [4]: 107%
- viability, T/C [5]: 104%
- viability, T/C [6]: 98.9%
- viability, T/C [7]: 103%
- viability, T/C [8]: 108%
- viability, T/C [9]: 101%
- viability, T/C [10]: 107%
- viability, T/C [11]: 107%
- viability, T/C [12]: 104%
- viability, T/C [13]: 109%
- viability, T/C [14]: 106%
- viability, T/C [15]: 105%
- viability, T/C [16]: 107%
- viability, T/C [17]: 107%
- viability, T/C [18]: 93.7%
- viability, T/C [19]: 106%
- viability, T/C [20]: 104%
- viability, T/C [21]: 105%
- viability, T/C [22]: 107%
- viability, T/C [23]: 102%
- viability, T/C [24]: 98.5%
- viability, T/C [25]: 102%
- viability, T/C [26]: 103%
- viability, T/C [27]: 99.1%
- viability, T/C [28]: 101%
- viability, T/C [29]: 104%
- viability, T/C [30]: 92.4%
- viability, T/C [31]: 97.7%
- viability, T/C [32]: 100%
- viability, T/C [33]: 103%
- viability, T/C [34]: 98.7%
- viability, T/C [35]: 100%
- viability, T/C [36]: 94.8%
